Measurements as given in patent US12522602B2, “Derivatives having 2,3-dihydro-1H-indene or 2,3-dihydrobenzofuran moiety or pharmaceutically acceptable salt thereof and pharmaceutical compositions comprising the same” (YUHAN CORPORATION, priority 2019, dated 2026).
Like-named read-outs stand apart in the source and are kept apart here.

Tested on: GM1 production in Jurkat cells
Experiment: cells
Assay type: cell-based

Row | Compound | IC50 (Homo sapiens, Jurkat, 72 h) [nM] | IC50 [nM]
1 | CCc1ccc(-c2cc3c(cc2F)C(NC(=O)O[C@@H]2CN4CCC2CC4)C(C)(C)C3)cc1 (stereo partly drawn) [Example 349, (S)-quinuclidin-3-yl (5-(4-ethylphenyl)-6-fluoro-2,2-dimethyl-2,3-dihydro-1H-inden-1-yl)carbamate] | 10.3 | –
2 | CC1(C)Cc2cc(-c3ccc(OCCN4CCOCC4)cc3)ccc2C1NC(=O)O[C@@H]1CN2CCC1CC2 (stereo partly drawn) [Example 117, (S)-quinuclidin-3-yl (2,2-dimethyl-5-(4-(2-morpholinoethoxy)phenyl)-2,3-dihydro-1H-inden-1-yl)carbamate] | 41.8 | –
3 | CC1(C)Cc2cc(-c3ccccc3Cl)ccc2C1NC(=O)O[C@@H]1CN2CCC1CC2 (stereo partly drawn) [Example 82, (S)-quinuclidin-3-yl (5-(2-chlorophenyl)-2,2-dimethyl-2,3-dihydro-1H-inden-1-yl)carbamate] | 3.2 | –
4 | COc1ccc(-c2ccc3c(c2)CC(C)(C)C3NC(=O)O[C@@H]2CN3CCC2CC3)cc1C(F)(F)F (stereo partly drawn) [Example 134, (S)-quinuclidin-3-yl (5-(4-methoxy-3-(trifluoromethyl)phenyl)-2,2-dimethyl-2,3-dihydro-1H-inden-1-yl)carbamate] | 43.2 | –
5 | COCCOc1ccccc1-c1ccc2c(c1)CC(C)(C)C2NC(=O)O[C@@H]1CN2CCC1CC2 (stereo partly drawn) [Example 99, (S)-quinuclidin-3-yl (5-(2-(2-methoxyethoxy)phenyl)-2,2-dimethyl-2,3-dihydro-1H-inden-1-yl)carbamate] | 22.2 | –
6 | CC(C)(C)Oc1cc(-c2ccc3c(c2)CC(C)(C)C3NC(=O)O[C@@H]2CN3CCC2CC3)ccn1 (stereo partly drawn) [Example 187, (S)-quinuclidin-3-yl (5-(2-(tert-butoxy)pyridin-4-yl)-2,2-dimethyl-2,3-dihydro-1H-inden-1-yl)carbamate] | 31.7 | –
7 | COc1cc(-c2cc3c(cc2OC)C(NC(=O)O[C@@H]2CN4CCC2CC4)C(C)(C)C3)ccn1 (stereo partly drawn) [Example 332, (S)-quinuclidin-3-yl (6-methoxy-5-(2-methoxypyridin-4-yl)-2,2-dimethyl-2,3-dihydro-1H-inden-1-yl)carbamate] | 158 | –
8 | CCOc1c(C)cc(-c2cc3c(cc2OC)C(NC(=O)O[C@@H]2CN4CCC2CC4)C(C)(C)C3)cc1C (stereo partly drawn) [Example 330, (S)-quinuclidin-3-yl (5-(4-ethoxy-3,5-dimethylphenyl)-6-methoxy-2,2-dimethyl-2,3-dihydro-1H-inden-1-yl)carbamate] | 52.7 | –
9 | Cc1c(Cl)cccc1-c1ccc2c(c1)CC(C)(C)C2NC(=O)O[C@@H]1CN2CCC1CC2 (stereo partly drawn) [Example 253, (S)-quinuclidin-3-yl (5-(3-chloro-2-methylphenyl)-2,2-dimethyl-2,3-dihydro-1H-inden-1-yl)carbamate] | 37.2 | –
10 | CC1(C)Cc2cc(-c3cc(Cl)cc(Cl)c3)ccc2C1NC(=O)O[C@@H]1CN2CCC1CC2 (stereo partly drawn) [Example 94, (S)-quinuclidin-3-yl (5-(3,5-dichlorophenyl)-2,2-dimethyl-2,3-dihydro-1H-inden-1-yl)carbamate] | 23.6 | –
11 | CC1(C)Cc2cc(-c3ccc(C4CC4)cc3)ccc2C1NC(=O)O[C@@H]1CN2CCC1CC2 (stereo partly drawn) [Example 131, (S)-quinuclidin-3-yl (5-(4-cyclopropylphenyl)-2,2-dimethyl-2,3-dihydro-1H-inden-1-yl)carbamate] | 10.6 | –
12 | O=C(NC1CCc2ccc(-c3cccc(OC(F)(F)F)c3)cc21)O[C@@H]1CN2CCC1CC2 (stereo partly drawn) [Example 32, (S)-quinuclidin-3-yl (6-(3-(trifluoromethoxy)phenyl)-2,3-dihydro-1H-inden-1-yl)carbamate] | 120 | –
13 | CC1(C)Cc2cc(-c3ccc(F)c(F)c3F)ccc2C1NC(=O)O[C@@H]1CN2CCC1CC2 (stereo partly drawn) [Example 95, (S)-quinuclidin-3-yl (2,2-dimethyl-5-(2,3,4-trifluorophenyl)-2,3-dihydro-1H-inden-1-yl)carbamate] | 49.7 | –
14 | CC1(C)Cc2cc(-c3ccc(F)c(F)c3)ccc2C1NC(=O)O[C@@H]1CN2CCC1CC2 (stereo partly drawn) [Example 87, (S)-quinuclidin-3-yl (5-(3,4-difluorophenyl)-2,2-dimethyl-2,3-dihydro-1H-inden-1-yl)carbamate] | 42.8 | –
15 | COc1cccc(-c2ccc3c(c2)CC(C)(C)C3NC(=O)O[C@@H]2CN3CCC2CC3)c1F (stereo partly drawn) [Example 231, (S)-quinuclidin-3-yl (5-(2-fluoro-3-methoxyphenyl)-2,2-dimethyl-2,3-dihydro-1H-inden-1-yl)carbamate] | 24.3 | –
16 | CCC1(CC)Cc2cc(-c3cccc(N(C)C)c3)ccc2C1NC(=O)O[C@@H]1CN2CCC1CC2 (stereo partly drawn) [Example 302, (S)-quinuclidin-3-yl (5-(3-(dimethylamino)phenyl)-2,2-diethyl-2,3-dihydro-1H-inden-1-yl)carbamate] | 4 | –
17 | CC(C)Oc1ccc(F)cc1-c1ccc2c(c1)CC(C)(C)C2NC(=O)O[C@@H]1CN2CCC1CC2 (stereo partly drawn) [Example 208, (S)-quinuclidin-3-yl (5-(5-fluoro-2-isopropoxyphenyl)-2,2-dimethyl-2,3-dihydro-1H-inden-1-yl)carbamate] | 67.4 | –
18 | CC1(C)Cc2cc(-c3cccc(Cl)c3)ccc2C1NC(=O)O[C@@H]1CN2CCC1CC2 (stereo partly drawn) [Example 78, (S)-quinuclidin-3-yl (5-(3-chlorophenyl)-2,2-dimethyl-2,3-dihydro-1H-inden-1-yl)carbamate] | 3.5 | –
19 | CC1(C)Cc2cc(-c3ccc(C(F)(F)F)cc3C(F)(F)F)ccc2C1NC(=O)O[C@@H]1CN2CCC1CC2 (stereo partly drawn) [Example 252, (S)-quinuclidin-3-yl (5-(2,4-bis(trifluoromethyl)phenyl)-2,2-dimethyl-2,3-dihydro-1H-inden-1-yl)carbamate] | 43.9 | –
20 | O=C(NC1COc2cc(-c3cccc(C(F)(F)F)c3)ccc21)O[C@@H]1CN2CCC1CC2 (stereo partly drawn) [Example 404, (S)-quinuclidin-3-yl (6-(3-(trifluoromethyl)phenyl)-2,3-dihydrobenzofuran-3-yl)carbamate] | 25.9 | –
21 | COc1cc2c(cc1-c1ccc(CC(C)C)cc1)CC(C)(C)C2NC(=O)O[C@@H]1CN2CCC1CC2 (stereo partly drawn) [Example 325, (S)-quinuclidin-3-yl (5-(4-isobutylphenyl)-6-methoxy-2,2-dimethyl-2,3-dihydro-1H-inden-1-yl)carbamate] | – | 2.1
22 | O=C(NC1CCc2cc(-c3cc(F)c(F)cc3F)ccc21)O[C@@H]1CN2CCC1CC2 (stereo partly drawn) [Example 21, (S)-quinuclidin-3-yl (5-(2,4,5-trifluorophenyl)-2,3-dihydro-1H-inden-1-yl)carbamate] | 127 | –
23 | CCc1ccc(-c2ccc3c(c2)CC(C)(C)C3NC(=O)O[C@@H]2CN3CCC2CC3)cc1 (stereo partly drawn) [Example 147, (S)-quinuclidin-3-yl (5-(4-ethylphenyl)-2,2-dimethyl-2,3-dihydro-1H-inden-1-yl)carbamate] | 14 | –
24 | COc1ccc(-c2ccc3c(c2)CC(C)(C)C3NC(=O)O[C@@H]2CN3CCC2CC3)c(OC)n1 (stereo partly drawn) [Example 184, (S)-quinuclidin-3-yl (5-(2,6-dimethoxypyridin-3-yl)-2,2-dimethyl-2,3-dihydro-1H-inden-1-yl)carbamate] | 40 | –
25 | O=C(NC1CCc2cc(-c3cccc(C(F)(F)F)c3)ccc21)O[C@@H]1CN2CCC1CC2 (stereo partly drawn) [Example 7, (S)-quinuclidin-3-yl (5-(3-(trifluoromethyl)phenyl)-2,3-dihydro-1H-inden-1-yl)carbamate] | 36.8 | –
26 | CCC1(CC)Cc2cc(-c3ccc(OC(C)C)cc3)ccc2C1NC(=O)O[C@@H]1CN2CCC1CC2 (stereo partly drawn) [Example 286, (S)-quinuclidin-3-yl (2,2-diethyl-5-(4-isopropoxyphenyl)-2,3-dihydro-1H-inden-1-yl)carbamate] | 4.1 | –
